Ends that are not written are not given here.

The test has as its system KV3.4 currents. As to the kind of experiment: Whole-cell patch clamp of KV3.4 currents in NGF-differentiated PC-12 cells, control or exposed to Aβ1−42. Type of test: cell-based, Rat. The conditions noted are these: peak of +40 mV pulse, 6 to 10 cells, 3 sessions; for effect on KV3.4 activity in NGF-differentiated PC-12 cells: 100 nM, control condition (no Aβ1−42); for effect on KV3.4 upregulation elicited by Aβ1−42 exposure: peptide 100 nM, 30 min pre-treatment, Aβ1−42 oligomers 5 μM for 24 h. As to the method:
Rat pheochromocytoma cells (PC-12 cells) were grown as previously described (Pannaccione et al., [2005], [2007]). For all the experiments, cells were seeded at low density on glass cover-slips coated with poly-L-lysine (50 μg/ml). Differentiation of PC-12 cells was achieved by treatment with neuronal growth factor (NGF) 2.5 S (50 ng/ml) for 7–9 days (Greene and Tischler, [1976]). For electrophysiological experiments, cells were seeded on glass cover-slips and used after 7–9 days of NGF.
Currents from CHO cells were recorded at room temperature 1-2 days after transfection. The extracellular solution contained the following (in mM): 138 NaCl, 5.4 KCl, 2 CaCl2, 1 MgCl2, 10 glucose and 10 HEPES, adjusted pH 7.4 with NaOH. The pipette solution contained (in mM) the following: 140 KCl, 2 MgCl2, 10 EGTA, 10 HEPES, 5 Mg-ATP, adjusted pH 7.4 with KOH (Miceli et al., [2015]). KV3.4 currents were measured by applying voltage steps from −100 mV to +60 mV from a holding potential of −80 mV (Abbott et al., [2001]). Moreover, the total outward K^+ currents were recorded in NGF-differentiated PC-12 cells using the extracellular solution contained the following (in mM): 150 NaCl, 5.4 KCl, 3 CaCl2, 1 MgCl2, 10 HEPES, adjusted pH 7.4 with NaOH. The pipette solution contained the following (in mM): 140 KCl, 2 MgCl2, 10 HEPES, 10 glucose, 10 EGTA, and 1 Mg-ATP adjusted at pH 7.4 with KOH (Diochot et al., [1998]). All experiments were performed in the presence of 50 nM tetrodotoxin (TTX) and 10 μ M nimodipine in the extracellular solution. To discriminate K^+ current components appropriate electrophysiological protocols were used (Pannaccione et al., [2007]). Steady-state activation and inactivation properties were measured by using appropriate protocols (Pannaccione et al., [2005]). […] The capacitance of the membrane was calculated according to the following equation: Cm = τc·Io/ΔEm (1-I∞/Io), where Cm is membrane capacitance, τc is the time constant of the membrane capacitance, Io is the maximum capacitance current value, ΔEm is the amplitude of the voltage step, and I∞ is the amplitude of the steady-state current. K^+ currents were recorded by patch-clamp technique in CHO and NGF-differentiated PC-12 cells using a commercially available amplifier (Axopatch 200B, Molecular Devices) and Digidata 1322A interface (Molecular Devices, USA). […] Data were acquired and analyzed using the pClamp software (version 9, Molecular Devices). […]
The peptide used in our study was synthesized by INBIOS (Pozzuoli, Naples, Italy) using the Aβ1−42 sequence of human APP [UniProtKB-P05067 (A4_HUMAN)]. The purity of the peptide was assessed by high-performance liquid chromatography (>95% pure) and the amino acid composition was verified by mass spectrometry. […]

With AAPAFASG [BDS-I[1-8]], the “effect on KV3.4 activity in NGF-differentiated PC-12 cells” value is given as “blocked KV3.4 activity” and the “effect on KV3.4 upregulation elicited by Aβ1−42 exposure” value is on record as “prevented”.
As to H-GSAFAPAA-OH [BDS-I[1-8scr]], the “effect on KV3.4 activity in NGF-differentiated PC-12 cells” value is on record as “did not exert any effect” and the “effect on KV3.4 upregulation elicited by Aβ1−42 exposure” value is “did not counteract”.

Source of the values: PMC6629785, “Synthesis and Pharmacological Evaluation of a Novel Peptide Based on Anemonia sulcata BDS-I Toxin as a New KV3.4 Inhibitor Exerting a Neuroprotective Effect Against Amyloid-β Peptide” (Frontiers in Chemistry, 2019).
